The supplement of paper PMC10307832

Compound: O=C(/C=C/c1cccnc1)NCCCCC1CCN(C(=O)c2ccccc2)CC1 [Daporinad] + Cc1nc(Nc2ncc(C(=O)Nc3c(C)cccc3Cl)s2)cc(N2CCN(CCO)CC2)n1 [Dasatinib] (partner 0.075 µM)
Assay: relative viability (nuclei count vs DMSO), 5 days (fraction); higher = more cells survive
Conditions: first compound 0.01581 µM
Outline: (§1)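 Each reported value is a median over duplicate plates. It expresses relative viability: treated-well nuclei count divided by vehicle-well nuclei count. Lung cancer cell lines in 1536-well plates were dosed by pin tool a day after seeding, alone with one drug or with a fixed anchor-drug dose plus five library-drug doses (not always all listed) in √10 steps, and nuclei were counted after 5 days.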

Cell Line | relative viability
NCI-H1395 | 0.422
NCI-H1792 | 0.921
NCI-H1623 | 0.525
NCI-H1563 | 0.458
ABC-1 | 0.42
NCI-H1944 | 0.237

Compound: O=C(/C=C/c1cccnc1)NCCCCC1CCN(C(=O)c2ccccc2)CC1 [Daporinad] + O=C(CCCCCCC(=O)Nc1ccccc1)NO [Vorinostat] (partner 1 µM)
Assay: as above
Conditions: first compound 0.0005 µM
Outline: as §1

Cell Line | relative viability
NCI-H522 | 0.995
NCI-H2342 | 0.806
NCI-H838 | 0.763
NCI-H1650 | 0.518
NCI-H1993 | 0.766
NCI-H441 | 0.913
PC-14 | 0.519
LCLC-103H | 0.747
NCI-H596 | 0.582
NCI-H2126 | 0.862
EMC-BAC-2 | 0.319
NCI-H2085 | 0.737
HCC-366 | 0.363
NCI-H1666 | 0.98
NCI-H647 | 0.527
LK-2 | 0.28
NCI-H2087 | 0.89
NCI-H358 | 0.688
NCI-H2170 | 0.769
H3255 | 0.668

Cell Line | relative viability
COR-L23 | 0.427
COR-L 105 | 0.775
IA-LM | 0.855
LOU-NH91 | 0.929
ChaGo-K-1 | 0.832
NCI-H1793 | 0.542
NCI-H2405 | 0.851
HOP-62 | 0.341
HCC-44 | 0.928
SK-MES-1 | 1
LU99A | 0.499
BEN | 0.554
HARA | 0.39
SW 900 | 0.461
NCI-H727 | 1.11
NCI-H1395 | 0.627
NCI-H1648 | 0.439
ABC-1 | 0.809
NCI-H1944 | 0.57

Same assay, conditions: first compound 0.001581 µM

Cell Line | relative viability
NCI-H522 | 1.13
NCI-H2342 | 0.791
NCI-H838 | 0.814
NCI-H1650 | 0.746
NCI-H1993 | 0.723
NCI-H441 | 0.677
PC-14 | 0.863
LCLC-103H | 0.835
NCI-H596 | 0.321
NCI-H2126 | 0.836
EMC-BAC-2 | 0.567
NCI-H1666 | 1.03
NCI-H647 | 0.483
LK-2 | 0.331
NCI-H2087 | 0.645
NCI-H358 | 0.75
NCI-H2170 | 0.81

Cell Line | relative viability
H3255 | 0.591
COR-L23 | 0.345
COR-L 105 | 0.705
IA-LM | 1.25
LOU-NH91 | 1.01
ChaGo-K-1 | 0.743
NCI-H1793 | 0.508
NCI-H2405 | 1.06
HOP-62 | 0.724
HCC-44 | 1.18
SK-MES-1 | 1.2
LU99A | 0.594
BEN | 0.661
HARA | 0.527
NCI-H727 | 1.25
NCI-H1395 | 0.795
NCI-H1648 | 0.333
